Data reported in ChEMBL document CHEMBL1125617, “N6-substituted adenosine receptor agonists: potential antihypertensive agents” (J Med Chem, 1991).

Assays:
[1] = test system: Rattus norvegicus; assay: Antihypertensive activity was measured as change in blood pressure for a 10-h after 10 mg/kg oral dose; assay type: functional
[2] = target: Adenosine A2 receptor (Rattus norvegicus, UniProt P29276+P30543); assay: Binding affinity towards adenosine A2 receptor; assay type: protein assay
[3] = target: Adenosine receptors; A1 & A2 (Rattus norvegicus) (UniProt P29276+P25099+P30543); assay: Ratio of Ki values of A1 adenosine and A2 adenosine receptor; assay type: protein assay
[4] = target: T1, Adenosine receptor A1 (Rattus norvegicus, UniProt P25099); assay: Binding affinity towards adenosine A1 receptor
T1 sequence (P25099 whole entry): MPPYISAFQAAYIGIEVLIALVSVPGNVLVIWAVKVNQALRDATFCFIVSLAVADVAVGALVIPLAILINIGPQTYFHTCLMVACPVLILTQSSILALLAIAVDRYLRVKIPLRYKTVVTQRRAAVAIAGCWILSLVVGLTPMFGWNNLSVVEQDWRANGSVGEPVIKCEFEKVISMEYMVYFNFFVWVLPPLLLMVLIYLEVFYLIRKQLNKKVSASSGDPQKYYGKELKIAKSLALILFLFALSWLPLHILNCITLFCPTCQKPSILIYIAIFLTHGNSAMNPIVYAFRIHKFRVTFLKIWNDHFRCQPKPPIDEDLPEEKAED

[5] = test system: Rattus norvegicus; assay: Antihypertensive activity measured as change in heart rate was measured for a 10-h after 10 mg/kg oral dose; assay type: functional
[6] = test system: Rattus norvegicus; assay: Antihypertensive activity measured as change in blood pressure for a 10-h after 10 mg/kg oral dose in rat; assay type: functional

Ki [2] [nM] | Ratio [3] | Ki [4] [nM] | Structure (SMILES) | Change [1] [%] | Change [5] [%] | Change [6] [%]
496 | 36.5 | 13.6 | OC[C@H]1O[C@@H](n2cnc3c(NC4COc5ccccc5C4)ncnc32)[C@H](O)[C@@H]1O (stereo not given in full) | -38 | -33 | –
9038 | 323 | 28 | CC(C)COc1ccc2c(c1)CCC2Nc1ncnc2c1ncn2[C@@H]1O[C@H](CO)[C@@H](O)[C@H]1O (stereo not given in full) | – | -21 | -39
4539 | 89.9 | 50.5 | OC[C@H]1O[C@@H](n2cnc3c(NC4CCc5cc6c(cc54)OCO6)ncnc32)[C@H](O)[C@@H]1O (stereo not given in full) | – | -21 | -21
66.7 | 12.9 | 5.19 | OC[C@H]1O[C@@H](n2cnc3c(NCC4CCc5ccccc54)ncnc32)[C@H](O)[C@@H]1O (stereo not given in full) | – | -15 | -40
48290 | 95.5 | 506 | CCCOc1ccc2c(c1)C(Nc1ncnc3c1ncn3[C@@H]1O[C@H](CO)[C@@H](O)[C@H]1O)CCC2 (stereo not given in full) | – | 36 | <10
396 | 9.6 | 41.2 | CCOc1cccc2c1CCCC2Nc1ncnc2c1ncn2[C@@H]1O[C@H](CO)[C@@H](O)[C@H]1O (stereo not given in full) | -42 | <10 | –
49710 | 32.6 | 1520 | COc1cc2c(c(OC)c1OC)C(Nc1ncnc3c1ncn3[C@@H]1O[C@H](CO)[C@@H](O)[C@H]1O)CC2 (stereo not given in full) | – | <10 | <10
3548 | 87.6 | 40.5 | O=[N+]([O-])c1ccc2c(c1)CCC2Nc1ncnc2c1ncn2[C@@H]1O[C@H](CO)[C@@H](O)[C@H]1O (stereo not given in full) | – | <10 | -14
1234 | 48.7 | 25.4 | OC[C@H]1O[C@@H](n2cnc3c(NC4CCCc5ccccc5C4)ncnc32)[C@H](O)[C@@H]1O (stereo not given in full) | – | -32 | -22
1821 | 4.5 | 404 | OC[C@H]1OC(n2cnc3c(NCC4=CCCCc5ccccc54)ncnc32)[C@H](O)[C@@H]1O (stereo not given in full) | – | <10 | <10
175 | 8.6 | 20.4 | OC[C@H]1O[C@@H](n2cnc3c(NC4CCCc5c(O)cccc54)ncnc32)[C@H](O)[C@@H]1O (stereo not given in full) | – | <10 | <10
2947 | 41.2 | 71.5 | COc1ccc2c(c1)CCCC2Nc1ncnc2c1ncn2[C@@H]1O[C@H](CO)[C@@H](O)[C@H]1O (stereo not given in full) | – | <10 | -30
12480 | 120 | 104 | CCCCCOc1ccc2c(c1)CCC2Nc1ncnc2c1ncn2[C@@H]1O[C@H](CO)[C@@H](O)[C@H]1O (stereo not given in full) | – | -20 | -47
511 | 3.7 | 138 | OC[C@H]1O[C@@H](n2cnc3c(NC4CCCc5c(OCc6ccccc6)cccc54)ncnc32)[C@H](O)[C@@H]1O (stereo not given in full) | – | 20 | -14
91.7 | 5.2 | 17.3 | OC[C@H]1O[C@@H](n2cnc3c(NCC4CCCc5ccccc54)ncnc32)[C@H](O)[C@@H]1O (stereo not given in full) | – | 21 | <10
76.9 | 4.27 | 17.8 | OC[C@H]1O[C@@H](n2cnc3c(NC4CCCCc5ccccc54)ncnc32)[C@H](O)[C@@H]1O (stereo not given in full) | – | 28 | -42
3989 | 13.3 | 299 | OC[C@H]1O[C@@H](n2cnc3c(N[C@H]4CCCc5ccccc54)ncnc32)[C@H](O)[C@@H]1O | – | <10 | -28
5302 | 188 | 28.2 | CCCOc1ccc2c(c1)CCC2Nc1ncnc2c1ncn2[C@@H]1O[C@H](CO)[C@@H](O)[C@H]1O (stereo not given in full) | – | -30 | -43
5929 | 86.4 | 68.6 | CCOc1ccc2c(c1)C(Nc1ncnc3c1ncn3[C@@H]1O[C@H](CO)[C@@H](O)[C@H]1O)CCC2 (stereo not given in full) | – | 32 | -39
53.4 | 0.53 | 99.8 | OC[C@H]1O[C@@H](n2cnc3c(NCC4=CCCc5ccccc54)ncnc32)[C@H](O)[C@@H]1O | – | 16 | -39
7487 | 224 | 33.4 | CCOc1ccc2c(c1)CCC2Nc1ncnc2c1ncn2[C@@H]1O[C@H](CO)[C@@H](O)[C@H]1O (stereo not given in full) | – | -34 | -33
2705 | 9.8 | 275 | OC[C@H]1O[C@@H](n2cnc3c(NCC4(O)CCCCc5ccccc54)ncnc32)[C@H](O)[C@@H]1O (stereo not given in full) | – | <10 | -14

Structure (SMILES) | Ki [2] [nM] | Ratio [3] | Ki [4] [nM] | Change [1] [%] | Change [5] [%] | Change [6] [%]
OC[C@H]1O[C@@H](n2cnc3c(NC4CCc5ccccc54)ncnc32)[C@H](O)[C@@H]1O (stereo not given in full) | 1120 | 24.5 | 45.8 | – | <10 | -22
